Measurements taken from patent US20070003987A1, “Screening method for substance binding to merozoite surface protein-1/42” (priority 2003, published 2007).

What was measured:
[1] = titration of fluorescent analogues in PBS buffer only; type: physicochemical; details: 0.01-200 μM
Protocol: Analogues 258, 261, 264 and 266 were titrated against (a) PBS buffer only, (b) 0.1 mg/ml bovine serum albumin in PBS or (c) 0.1 mg/ml MSP142 in PBS. Fluorescence observed was compared to naphthalenetrisulphate (non-specific reagent) and suramin.

MSP142 [2] = target: T1, MSP142 (Plasmodium falciparum, UniProt Q8I0U8); assay: inhibition of suramin binding (fluorescence, 384-well plate); details: 10 μM analogue, 2 μM suramin, 0.1 mg/ml MSP142
Protocol: MSP142 (0.1 mg/ml), 10 μM suramin analogue and 2 μM suramin were combined in a 384-well black polypropylene low binding plate (total reaction volume 100 μL). Fluorescence was read at λex 320 nm/λem 405 nm on a BMG Polarstar fluorimeter. Readings were taken before, and 1 hour after, addition of suramin.
Target sequence in this assay (Q8I0U8 1327-1699): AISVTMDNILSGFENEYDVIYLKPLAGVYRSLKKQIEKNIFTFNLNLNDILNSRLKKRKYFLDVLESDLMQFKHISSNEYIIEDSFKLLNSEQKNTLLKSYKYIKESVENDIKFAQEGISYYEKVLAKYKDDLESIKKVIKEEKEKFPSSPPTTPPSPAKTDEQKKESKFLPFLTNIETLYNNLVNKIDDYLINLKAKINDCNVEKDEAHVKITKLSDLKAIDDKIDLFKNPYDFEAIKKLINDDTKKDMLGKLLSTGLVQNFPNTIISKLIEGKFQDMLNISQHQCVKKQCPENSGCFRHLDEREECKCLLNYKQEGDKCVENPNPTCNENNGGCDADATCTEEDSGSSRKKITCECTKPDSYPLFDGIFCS

P. falciparum (FCB-1) = assay: growth inhibition assay by [3H] hypoxanthine uptake; type: cell-based, Plasmodium falciparum; details: 200 μM
Protocol: Asexual blood stages of P. falciparum (FCB-1) were maintained at 37° C. in RPMI 1640/Albumax medium (Gibco) supplemented with 2 mM L-glutamine as previously described (Blackman, 1994 Methods Cell Biol. 45, 213-220). Cultures were gassed with 7% CO2, 5% O2 and 88% N2 and maintained by routine passage in fresh human erythrocytes. Parasites were synchronised by Percoll and sorbitol treatment (Holder & Freeman, 1982 J. Exp. Med. 156, 1528-1538); schizonts were purified by centrifugation over Percoll and then returned to culture in the presence of fresh erythrocytes. After 4 h, during which time released merozoites invaded erythrocytes, the cells were treated with 5% sorbitol for 10 min to lyse the residual schizonts, before returning the parasites to culture.
Suramin and NTS were also assayed for P. falciparum growth inhibition using [^3H] hypoxanthine uptake (generally as described by Desjardins et al, 1979 Antimicrob. Agents Chemother. 16, 710-718). Serial dilutions of the compounds in 96-well plates were incubated at 37° C. with purified mature schizonts at a final parasitaemia of ^˜0.5% and a haematrocrit of ^˜2% in triplicate cultures. […] The filters were wetted with scintillation cocktail and the bound radioactivity counted in a β-counter. […] The amount of radioactivity in each sample was expressed as a percentage of activity in the control wells containing no compound. […]

MSP142 [3] = target: T1, MSP142; assay: P. falciparum MSP1 secondary processing assay (merozoites, Western blot); type: biochemical; set-up: Merozoites were purified as described previously; endogenous in cells; host or cells: purified P. falciparum merozoites released from mature schizonts; details: 1 mM, 1 h at 37° C.
Protocol: Merozoites were purified as described previously (Blackman 1994 Methods Cell Biol. 45, 213-220) after release from mature schizonts into growth medium supplemented with 2 mM EGTA. Merozoites were harvested by centrifugation, followed by sequential passage through pre-wetted filters of 3 and 1.2 μm pore size. Merozoites were washed in Ca^2+- and Mg^2+-free PBS in the presence of protease inhibitors (leupeptin, antipain and aprotinin at 10 μg ml^−1). The merozoites were then washed and resuspended in 50 mM Tris-HCl pH 7.2, 5 mM CaCl2, 1 mM MgCl2, plus leupeptin, antipain and aprotinin at 10 μg ml^−1 (processing buffer), and divided into 18 μl aliquots. Two microlitres of either diluted compound or reaction buffer were added and the samples incubated for 1 h at 37° C. Control assays included those in which processing was prevented by immediate addition of either SDS, 1 mM PMSF or 5 mM EGTA; and those in the absence of compound or in the presence of 0.2 mM TLCK (tosyl-L-lysyl chloromethyl ketone). After 1 h the reaction was stopped, and MSP1 processing was analysed using a Western blot-based assay (Blackman 1994 Methods Cell Biol. 45, 213-220). The blots were probed with a rabbit anti-MSP133/MSP142 antibody and the bands corresponding to MSP142 and MSP133 polypeptides were visualised by enhanced chemiluminescence.
Purified merozoites were incubated in the presence or absence of suramin or NTS and polypeptides subjected to SDS-PAGE and Western blotting.
Target sequence in this assay (Q8I0U8 20-1326): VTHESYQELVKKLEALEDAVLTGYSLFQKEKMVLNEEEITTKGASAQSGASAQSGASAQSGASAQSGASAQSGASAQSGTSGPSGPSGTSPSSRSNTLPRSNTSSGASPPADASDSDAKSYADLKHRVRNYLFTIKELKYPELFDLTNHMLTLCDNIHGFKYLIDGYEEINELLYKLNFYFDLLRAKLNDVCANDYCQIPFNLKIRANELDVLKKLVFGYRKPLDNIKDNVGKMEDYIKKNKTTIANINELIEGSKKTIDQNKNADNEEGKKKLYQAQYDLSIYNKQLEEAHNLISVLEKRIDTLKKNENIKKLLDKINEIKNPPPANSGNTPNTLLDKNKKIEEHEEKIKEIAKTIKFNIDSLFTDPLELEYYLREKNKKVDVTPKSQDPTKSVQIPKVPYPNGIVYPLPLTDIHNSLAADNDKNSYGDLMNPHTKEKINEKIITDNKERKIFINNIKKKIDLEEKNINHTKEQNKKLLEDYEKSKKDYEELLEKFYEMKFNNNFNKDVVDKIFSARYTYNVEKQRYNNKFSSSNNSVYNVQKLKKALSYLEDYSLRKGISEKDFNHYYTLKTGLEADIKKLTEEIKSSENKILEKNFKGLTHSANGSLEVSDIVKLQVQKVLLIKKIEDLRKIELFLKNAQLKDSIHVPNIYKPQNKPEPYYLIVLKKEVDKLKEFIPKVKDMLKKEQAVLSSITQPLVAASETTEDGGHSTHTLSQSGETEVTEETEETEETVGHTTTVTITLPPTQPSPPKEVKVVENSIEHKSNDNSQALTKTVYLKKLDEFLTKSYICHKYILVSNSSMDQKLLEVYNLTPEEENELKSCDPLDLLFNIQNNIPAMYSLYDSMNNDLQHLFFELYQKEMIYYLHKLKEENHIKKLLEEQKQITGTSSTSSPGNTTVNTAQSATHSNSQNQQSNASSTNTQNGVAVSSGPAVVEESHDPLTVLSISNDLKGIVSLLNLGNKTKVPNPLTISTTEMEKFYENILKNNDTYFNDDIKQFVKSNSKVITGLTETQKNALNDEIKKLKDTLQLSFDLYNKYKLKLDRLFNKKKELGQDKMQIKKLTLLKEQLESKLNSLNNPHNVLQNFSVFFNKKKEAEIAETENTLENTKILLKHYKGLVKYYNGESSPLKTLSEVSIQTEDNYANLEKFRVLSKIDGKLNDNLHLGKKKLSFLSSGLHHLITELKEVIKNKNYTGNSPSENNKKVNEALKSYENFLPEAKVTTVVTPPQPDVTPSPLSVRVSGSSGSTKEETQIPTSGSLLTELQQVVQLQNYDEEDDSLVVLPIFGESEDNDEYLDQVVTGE
Target sequence in this assay (Q8I0U8 1327-1699): as the sequence (Q8I0U8 1327-1699) above

SMILES	fluorescence in buffer alone [1]	effect on the fluorescent signal of suramin / own fluorescence (MSP142 [2])	inhibition of invasion at the highest concentration tested (P. falciparum (FCB-1))	inhibition of MSP142 secondary processing (MSP142 [3])
O=S(=O)(O)c1ccc2c(S(=O)(=O)O)cc(S(=O)(=O)O)cc2c1 [NTS, Naphthalene-1,3,6-trisulphonic acid]	fluorescent in buffer alone	most fluorescent compound tested	did not inhibit invasion	–
O=S(=O)(F)Cc1ccccc1 [PMSF]	–	–	–	absence of MSP133
